This note sets out measurements from patent US8518944B2, “Compounds as casein kinase inhibitors” (Pfizer Inc., priority 2009, dated 2013).

Counter-ions that a name gives are not always drawn. Bounds are passed on as bounds.

One assay has as its target CK1δ (Homo sapiens, UniProt P48730). The experiment in a line: CK1δ kinase assay (Kinase-Glo luminescence). The format is biochemical. The conditions noted are these: ATP 10 μM, CK1δ enzyme 2 nM, peptide substrate 42 μM, 25° C., 85 minutes; values marked * are geometric mean of 5-16 determinations; read-out: CKIδ IC50 (nM), geometric mean of 2-4 determinations. The method, then:
The CK1δ kinase assay was performed in a standard buffer containing ATP at 10 μM, CK1δ enzyme at 2 nM, and the peptide substrate PLSRTLpSVASLPGL at 42 μM. The reaction was incubated at 25° C. for 85 minutes. Enzyme inhibition was performed in the presence of either 1 μL of CK1δ inhibitor, or 4% DMSO. Detection of luminescent output on a PerkinElmer EnVision plate reader (PerkinElmer, Waltham, Mass.) was performed as described for the Kinase-Glo Assay (Promega).

A further assay deals with CK1ε wild type enzyme (Homo sapiens, UniProt P49674). The experiment in a line: CK1ε kinase assay (Kinase-Glo luminescence). The assay is classed as biochemical. The conditions noted are these: ATP 10 μM, CK1ε wild type enzyme 2.5 nM, peptide substrate 42 μM, 25° C., 70 minutes; values marked * are geometric mean of 5-16 determinations; read-out: CKIε IC50 (nM), geometric mean of 2-4 determinations. The method, then:
The CK1ε kinase assay was performed in a standard buffer containing ATP at 10 μM, CK1ε wild type enzyme at 2.5 nM, and 42 μM concentration of the peptide substrate PLSRTLpSVASLPGL (Flotow et al., 1990). The reaction was incubated at 25° C. for 70 minutes. Enzyme inhibition was measured in the presence of 1 μL of the CK1ε inhibitor, or 4% DMSO. Detection was carried out as described for the Kinase-Glo Assay (Promega). Luminescent output was measured on the PerkinElmer EnVision plate reader (PerkinElmer, Waltham, Mass.).

Sequence of CK1δ (P48730 whole entry): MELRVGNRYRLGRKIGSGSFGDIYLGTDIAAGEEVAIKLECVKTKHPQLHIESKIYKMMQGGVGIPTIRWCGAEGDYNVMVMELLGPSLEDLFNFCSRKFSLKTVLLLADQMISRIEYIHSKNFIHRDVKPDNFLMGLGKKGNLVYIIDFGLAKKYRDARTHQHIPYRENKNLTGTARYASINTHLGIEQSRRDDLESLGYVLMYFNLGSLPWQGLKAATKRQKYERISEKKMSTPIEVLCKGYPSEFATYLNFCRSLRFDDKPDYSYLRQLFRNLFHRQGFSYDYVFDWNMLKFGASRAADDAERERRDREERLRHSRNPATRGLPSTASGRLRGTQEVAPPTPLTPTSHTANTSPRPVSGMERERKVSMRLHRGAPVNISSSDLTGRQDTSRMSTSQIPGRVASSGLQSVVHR
Sequence of CK1ε wild type enzyme (P49674 whole entry): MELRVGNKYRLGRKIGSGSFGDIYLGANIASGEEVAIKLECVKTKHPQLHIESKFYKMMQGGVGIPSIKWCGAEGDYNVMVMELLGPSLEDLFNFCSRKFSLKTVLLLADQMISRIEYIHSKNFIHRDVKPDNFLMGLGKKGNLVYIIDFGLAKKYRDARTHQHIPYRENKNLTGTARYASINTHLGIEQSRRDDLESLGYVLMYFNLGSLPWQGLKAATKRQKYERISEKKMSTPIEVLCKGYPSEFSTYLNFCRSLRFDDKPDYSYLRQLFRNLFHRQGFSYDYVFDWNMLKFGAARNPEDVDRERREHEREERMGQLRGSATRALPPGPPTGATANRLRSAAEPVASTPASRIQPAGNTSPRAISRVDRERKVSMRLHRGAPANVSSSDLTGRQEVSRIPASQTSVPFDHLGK

As to `CNc1nccc(-c2c(-c3ccccc3)ncn2C2CCN(Cc3ncccn3)CC2)n1` [Example 12, N-Methyl-4-{4-phenyl-1-[1-(pyrimidin-2-ylmethyl)piperidin-4-yl]-1H-imidazol-5-yl}pyrimidin-2-amine], the IC50 turned out to be 191 nM at CK1δ and 660 nM on CK1ε wild type enzyme.

For `Fc1ccc(-c2ncn(C3CCN(Cc4ccon4)C3)c2-c2ccncn2)cc1` (stereo not drawn) [Example 8, 4-{4-(4-Fluorophenyl)-1-[1-(isoxazol-3-ylmethyl)pyrrolidin-3-yl]-1H-imidazol-5-yl}pyrimidine], the IC50 worked out at 211 nM at CK1δ and 617 nM at CK1ε wild type enzyme.

In the case of `Nc1nccc(-c2c(-c3ccc(F)cc3)ncn2C2CCN(Cc3ccnc(C4CC4)n3)CC2)n1` [Example 28, 4-[1-{1-[(2-cyclopropylpyrimidin-4-yl)methyl]piperidin-4-yl}-4-(4-fluorophenyl)-1H-imidazol-5-yl]pyrimidin-2-amine, trifluoroacetate salt], the values for the IC50 on CK1δ and at CK1ε wild type enzyme were 54.9 nM and 351 nM, respectively.

In the case of `Cc1ncc(CN2CCC(n3cnc(-c4ccc(F)cc4)c3-c3ccnc(N)n3)CC2)cn1` [Example 27, 4-[4-(4-fluorophenyl)-1-{1-[(2-methylpyrimidin-5-yl)methyl]piperidin-4-yl}-1H-imidazol-5-yl]pyrimidin-2-amine, trifluoroacetate salt], the IC50 at CK1δ amounted to 17.6 nM; at CK1ε wild type enzyme it was 83.2 nM.

As for `CNc1nccc(-c2c(-c3ccc(F)cc3)ncn2C2CCN(C(C)c3ccon3)CC2)n1` (stereo not drawn) [Example 2, 4-{4-(4-Fluorophenyl)-1-[1-(1-isoxazol-3-ylethyl)piperidin-4-yl]-1H-imidazol-5-yl}-N-methylpyrimidin-2-amine], the IC50 was 16.7 nM at CK1δ and 67.4 nM at CK1ε wild type enzyme.

For `Cc1cc(C)c(CN2CCC(n3cnc(-c4ccc(F)cc4)c3-c3ccnc(N)n3)C2)cn1` (stereo not drawn) [Example 37, 4-[1-{1-[(4,6-dimethylpyridin-3-yl)methyl]pyrrolidin-3-yl}-4-(4-fluorophenyl)-1H-imidazol-5-yl]pyrimidin-2-amine], the results for the IC50 at CK1δ and on CK1ε wild type enzyme were 46.6 nM and 124 nM, respectively.

In the case of `C[C@@H](c1ccon1)N1CCC(n2cnc(-c3ccc(F)cc3)c2-c2ccncn2)CC1` (single isomer, unassigned) [Example 10], the IC50 at CK1δ was determined as 64.6 nM; at CK1ε wild type enzyme, 277 nM.

For `COc1cc(CN2CCC(n3cnc(-c4ccc(F)cc4)c3-c3ccnc(N)n3)CC2)ccn1` [Example 25, 4-[4-(4-fluorophenyl)-1-{1-[(2-methoxypyridin-4-yl)methyl]piperidin-4-yl}-1H-imidazol-5-yl]pyrimidin-2-amine, trifluoroacetate salt], the IC50 at CK1δ amounted to 84.3 nM; at CK1ε wild type enzyme it was 393 nM.

For the molecule `Fc1ccc(-c2ncn(C3CCN(Cc4cnc5ccnn5c4)C3)c2-c2ccncn2)cc1` (stereo not drawn) [Example 40, 6-({3-[4-(4-fluorophenyl)-5-pyrimidin-4-yl-1H-imidazol-1-yl]pyrrolidin-1-yl}methyl)pyrazolo[1,5-a]pyrimidine, trifluoroacetate salt], the IC50 at CK1δ was determined as 178 nM; on CK1ε wild type enzyme, 798 nM.

Consider `Nc1nccc(-c2c(-c3ccc(F)cc3)ncn2C2CCN(Cc3ccc4nccnc4c3)C2)n1` (stereo not drawn) [Example 35, 4-{4-(4-fluorophenyl)-1-[1-(quinoxalin-6-ylmethyl)pyrrolidin-3-yl]-1H-imidazol-5-yl}pyrimidin-2-amine], for which the IC50 on CK1δ is 67.8 nM; on CK1ε wild type enzyme, 170 nM.

As for `COc1ccc(CN2CCC(n3cnc(-c4ccc(F)cc4)c3-c3ccnc(N)n3)CC2)cn1` [Example 22, 4-[4-(4-fluorophenyl)-1-{1-[(6-methoxypyridin-3-yl)methyl]piperidin-4-yl}-1H-imidazol-5-yl]pyrimidin-2-amine, trifluoroacetate salt], the IC50 stood at 83.6 nM at CK1δ and 482 nM at CK1ε wild type enzyme.

With `c1ccc(-c2ncn(C3CCN(Cc4ccon4)CC3)c2-c2ccncn2)cc1` [Example 16, 4-{1-[1-(isoxazol-3-ylmethyl)piperidin-4-yl]-4-phenyl-1H-imidazol-5-yl}pyrimidine], the IC50 at CK1δ came out at 42.8 nM; at CK1ε wild type enzyme it was 327 nM.

On to `Cc1c(CN2CCC(n3cnc(-c4ccc(F)cc4)c3-c3ccncn3)C2)nc2ccccn12` (stereo not drawn) [Example 41, 2-({3-[4-(4-fluorophenyl)-5-pyrimidin-4-yl-1H-imidazol-1-yl]pyrrolidin-1-yl}methyl)-3-methylimidazo[1,2-a]pyridine, trifluoroacetate salt], for which the results for the IC50 at CK1δ and on CK1ε wild type enzyme were 595 nM and 1990 nM, respectively.

For `CNc1nccc(-c2c(-c3ccc(F)cc3)ncn2C2CCN(Cc3ccon3)CC2)n1` [Example 5, 4-{4-(4-Fluorophenyl)-1-[1-(isoxazol-3-ylmethyl)piperidin-4-yl]-1H-imidazol-5-yl}-N-methylpyrimidin-2-amine], the IC50 on CK1δ was found to be 6.86 nM; on CK1ε wild type enzyme, 32.3 nM.

On to `Nc1nccc(-c2c(-c3ccc(F)cc3)ncn2C2CCN(Cc3ccon3)CC2)n1` [Example 4, 4-{4-(4-Fluorophenyl)-1-[1-(isoxazol-3-ylmethyl)piperidin-4-yl]-1H-imidazol-5-yl}pyrimidin-2-amine], for which the IC50 on CK1δ is less than 4.17 nM; at CK1ε wild type enzyme it was 18.9 nM.

As for `Fc1ccc(-c2ncn(C3CCN(Cc4cn5ccccc5n4)C3)c2-c2ccncn2)cc1` (stereo not drawn) [Example 39, 2-({3-[4-(4-fluoro-phenyl)-5-pyrimidin-4-yl-1H-imidazol-1-yl]pyrrolidin-1-yl}methyl)imidazo[1,2-a]pyridine, trifluoroacetate salt], the IC50 turned out to be 211 nM on CK1δ and 644 nM at CK1ε wild type enzyme.

With `Cc1cccc(CN2CCC(n3cnc(-c4ccc(F)cc4)c3-c3ccnc(N)n3)C2)n1` (stereo not drawn) [Example 30, 4-[4-(4-fluorophenyl)-1-{1-[(6-methylpyridin-2-yl)methyl]pyrrolidin-3-yl}-1H-imidazol-5-yl]pyrimidin-2-amine], the IC50 turned out to be 91.6 nM on CK1δ and 266 nM at CK1ε wild type enzyme.

Regarding `Nc1nccc(-c2c(-c3ccc(F)cc3)ncn2C2CN(Cc3ncccn3)C2)n1` [Example 1, 4-{4-(4-Fluorophenyl)-1-[1-(pyrimidin-2-ylmethyl)azetidin-3-yl]-1H-imidazol-5-yl}pyrimidin-2-amine], the IC50 on CK1δ was 163 nM; at CK1ε wild type enzyme, 536 nM.

Turning to `Nc1nccc(-c2c(-c3ccc(F)cc3)ncn2C2CCN(Cc3ccnc4cccnc34)C2)n1` (stereo not drawn) [Example 38, 4-{4-{4-fluorophenyl)-1-[1-(1,5-naphthyridin-4-ylmethyl)pyrrolidin-3-yl]-1H-imidazol-5-yl}pyrimidin-2-amine], the IC50 on CK1δ was found to be 55.8 nM; on CK1ε wild type enzyme it was 158 nM.

On to `CNc1nccc(-c2c(-c3ccccc3)ncn2C2CCN(Cc3ccon3)CC2)n1` [Example 15, 4-{1-[1-(isoxazol-3-ylmethyl)piperidin-4-yl]-4-phenyl-1H-imidazol-5-yl}-N-methylpyrimidin-2-amine, hydrochloride salt], for which the figures for the IC50 at CK1δ and at CK1ε wild type enzyme were 18.6 nM and 76.1 nM, respectively.

Take `Cc1cc(CN2CCC(n3cnc(-c4ccc(F)cc4)c3-c3ccnc(N)n3)CC2)ccn1` [Example 21, 4-[4-(4-fluorophenyl)-1-{1-[(2-methylpyridin-4-yl)methyl]piperidin-4-yl}-1H-imidazol-5-yl]pyrimidin-2-amine, trifluoroacetate salt]: the IC50 on CK1δ was 13 nM; on CK1ε wild type enzyme, 59.8 nM.

Regarding `Nc1nccc(-c2c(-c3ccc(F)cc3)ncn2C2CCN(Cc3ncccn3)CC2)n1` [Example 3, 4-{4-(4-Fluorophenyl)-1-[1-(pyrimidin-2-ylmethyl)piperidin-4-yl]-1H-imidazol-5-yl}pyrimidin-2-amine], the values for the concentration for half-maximal inhibition (IC50) on CK1δ and on CK1ε wild type enzyme were 27.8 nM and 116 nM, respectively.

Take `C[C@H](c1ccon1)N1CCC(n2cnc(-c3ccc(F)cc3)c2-c2ccncn2)CC1` (single isomer, unassigned) [Example 9]: the IC50 came to 281 nM on CK1δ and 1360 nM at CK1ε wild type enzyme.

For the molecule `COc1ncccc1CN1CCC(n2cnc(-c3ccc(F)cc3)c2-c2ccnc(N)n2)CC1` [Example 26, 4-[4-(4-fluorophenyl)-1-{1-[(2-methoxypyridin-3-yl)methyl]piperidin-4-yl}-1H-imidazol-5-yl]pyrimidin-2-amine, trifluoroacetate salt], the IC50 at CK1δ came to 51.9 nM; on CK1ε wild type enzyme, 238 nM.

`Nc1nccc(-c2c(-c3ccc(F)cc3)ncn2C2CCN(Cc3ccon3)C2)n1` (stereo not drawn) [Example 7, 4-{4-(4-Fluorophenyl)-1-[1-(isoxazol-3-ylmethyl)pyrrolidin-3-yl]-1H-imidazol-5-yl}pyrimidin-2-amine]: the IC50 is 67.8 nM at CK1δ and 193 nM at CK1ε wild type enzyme.

Consider `Cc1ncccc1CN1CCC(n2cnc(-c3ccc(F)cc3)c2-c2ccnc(N)n2)C1` (stereo not drawn) [Example 32, 4-[4-(4-fluorophenyl)-1-{1-[(2-methylpyridin-3-yl)methyl]pyrrolidin-3-yl}-1H-imidazol-5-yl]pyrimidin-2-amine], for which the IC50 on CK1δ came out at 61.1 nM; on CK1ε wild type enzyme it was 150 nM.

For `c1ccc(-c2ncn(C3CCN(Cc4ncccn4)CC3)c2-c2ccncn2)cc1` [Example 11, 2-{[4-(4-Phenyl-5-pyrimidin-4-yl-1H-imidazol-1-yl)piperidin-1-yl]methyl}pyrimidine], the 50% inhibitory concentration (IC50) at CK1δ is 790 nM; at CK1ε wild type enzyme it was more than 3660 nM.
